Laboratory results from PMC10619135, “Virtual screening, identification and in vitro validation of small molecule GDP-mannose dehydrogenase inhibitors” (RSC Chemical Biology, 2023).

How the values were obtained:
[1] = target: T1, GDP-mannose dehydrogenase (GMD) (Pseudomonas aeruginosa, UniProt P11759); experiment: NADH fluorescence assay, dilution series; format: biochemical
T1 construct: gene algD; recombinant GMD

[2] = target: T1, GDP-mannose dehydrogenase (GMD); experiment: intact protein ESI-MS; format: binding; conditions: covalent; overnight incubation; single adduct; site Lys324 only predicted by docking

T1 sequence (P11759 whole entry): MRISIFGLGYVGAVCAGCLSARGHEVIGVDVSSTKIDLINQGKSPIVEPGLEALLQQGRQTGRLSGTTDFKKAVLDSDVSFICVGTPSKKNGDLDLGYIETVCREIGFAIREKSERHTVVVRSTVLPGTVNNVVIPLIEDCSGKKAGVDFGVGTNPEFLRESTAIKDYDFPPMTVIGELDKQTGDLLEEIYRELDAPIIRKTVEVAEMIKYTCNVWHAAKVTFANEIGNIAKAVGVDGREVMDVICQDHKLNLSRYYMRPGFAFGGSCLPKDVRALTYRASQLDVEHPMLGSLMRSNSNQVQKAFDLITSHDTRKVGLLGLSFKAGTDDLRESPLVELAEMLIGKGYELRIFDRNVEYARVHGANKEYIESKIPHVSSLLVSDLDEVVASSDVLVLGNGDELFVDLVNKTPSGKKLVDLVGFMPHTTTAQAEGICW

CC(=O)C1=C(O)C=C2Oc3c4c(c(C)c(O)c3[C@@]2(C)C1=O)O/C(=C\c1ccc(O)cc1)C4=O [compound 13, 13]
IC50 [1]: 16.7 ± 2.12 µM | intact protein ESI-MS [2]: ESI-MS indicated clear evidence of a single GMD-13 adduct
